The numbers were not newly measured in patent US7175830B2, “Imaging of drug accumulation as a guide to antitumor therapy” (The United States of America as represented by the …, priority 1999, dated 2007), which cites them from elsewhere.

For this series the following is noted: circulates in the body; higher than SN-38, the active form.

With `CCc1c2c(nc3ccc(OC(=O)N4CCC(N5CCCCC5)CC4)cc13)-c1cc3c(c(=O)n1C2)COC(=O)[C@]3(O)CC` [Irinotecan], the “circulating concentration relative to that of its metabolite SN-38” value is given as “about 100 fold”.
